{"source": "patent US20150148383A1", "about": "“Methods for Inhibiting or Reversing Epiretinal Membrane Formation” (Regenerative Research Foundation, priority 2013, published 2015)", "key": {"[1]": {"system": "RPE cells", "experiment": "RPE morphology in vitro by light microscopy", "format": "cell-based, human", "conditions": "10 mM nicotinamide vs no nicotinamide", "description": "(§1) Primary adult RPE cells were obtained from cadaveric human eyes under IRB-approved protocols, within 36-hours of the time of death. The anterior half of the eye was removed followed by the vitreous, and retina, isolating the posterior eyecup with the RPE/Bruch's membrane/choroid complex intact (as described in Blenkinsop T A, et al. The culture and maintenance of functional retinal pigment epithelial monolayers from adult human eye. 2012; Salero E et al. Adult human RPE can be activated into a multipotent stem cell that produces mesenchymal derivatives. Cell Stem Cell. 2012; 10(1):88-95). […] Once the primary (passage zero) cells reached confluence (˜20 days), the FBS concentration was reduced to 5%. Then, following the protocol developed by Salero S et al., 2012 (supra), the RPE were activated to proliferate in RPE medium with 5% FBS. The expanded RPE cells were plated at 30,000 cells per well in a 24-well plate and cultured in DMEM/F12, 5% FBS. Proliferation rates were measured by manual and/or automated counting of cell number as a function of time.\nCultures were imaged at 32× on a Zeiss Observer.D1 fluorescent microscope.\nCultured RPE cells were analyzed by light microscopy."}, "[2]": {"system": "Adult human RPE", "experiment": "Transepithelial resistance (TER) of RPE on transwells", "format": "cell-based", "conditions": "measured weekly for one month; presence vs absence of nicotinamide", "protocol": "The transepithelial resistance (TER) is measured during and after treatment of hRPE cells cultured in 12-well 0.4 μm transwell inserts using the EVOM2 World Precision Instruments Volt Ohm Meter protocol. Resistance is measured in Ω-cm^2 and recorded prior to treatment to confirm that all wells are at approximately the same TER. The TER of a cell-free transwell insert of ˜110 Ω-cm^2 is subtracted to obtain the resistance of the cellular epithelium. TER is measured in each well after treatment to assess the change caused by nicotinamide. Adult human RPE were plated on semi-permeable polyester transwells and transepithelial resistance was measured weekly for one month."}, "[3]": {"system": "human RPE cells", "experiment": "ZO-1 tight junction protein immunostaining", "format": "cell-based", "protocol": "Cells were fixed with 4% paraformaldehyde for 15 minutes, permeabilized with 0.2% Triton in PBS, blocked with 1% BSA for 30 minutes. Primary antibodies were used at 1:100 dilution in PBS. The corresponding Alexafluor 647 secondary antibodies were used for the respective primary antibody and imaged on a Zeiss Observer.D1 fluorescent microscope."}, "[4]": {"system": "adult human RPE cells", "experiment": "Gene expression analysis by real time PCR of RPE and mesenchymal markers", "format": "cell-based", "conditions": "10 mM nicotinamide, relative to control"}, "[5]": {"system": "RPE cells", "experiment": "Dose response for prevention of epithelial to mesenchymal transition, SNAIL staining read-out", "format": "cell-based, human", "conditions": "all concentrations: 10 μM, 100 μM, 1 mM or 10 mM nicotinamide; 5 days", "protocol": "Cells were fixed with 4% paraformaldehyde for 15 minutes, permeabilized with 0.2% Triton in PBS, blocked with 1% BSA for 30 minutes. Primary antibodies were used at 1:100 dilution in PBS. The corresponding Alexafluor 647 secondary antibodies were used for the respective primary antibody and imaged on a Zeiss Observer.D1 fluorescent microscope. A dose response curve for the effect of nicotinamide on the prevention of epithelial to mesenchymal transition was determined using SNAIL expression as a read-out. RPE cells were cultured at 30,000 cells/well in a 24 well plate and cultured for 5 days in the presence of media containing 10 μM, 100 μM, 1 mM or 10 mM nicotinamide or control (no nicotinamide). The media was changed 3 times, and replaced with media containing the same concentration of nicotinamide, after which the cells were fixed and stained with fluorescently-labeled anti-SNAIL antibody. At all concentrations, SNAIL staining was decreased by application of nicotinamide."}, "[6]": {"system": "RPE cells", "experiment": "RPE cell proliferation assay (Ki67 immunostaining, cell number)", "format": "cell-based, human", "conditions": "10 mM nicotinamide; 5 days in DMEM/F12, 5% FBS", "description": "as §1\nCells were fixed with 4% paraformaldehyde for 15 minutes, permeabilized with 0.2% Triton in PBS, blocked with 1% BSA for 30 minutes. Primary antibodies were used at 1:100 dilution in PBS. […]\nRPE cells were plated at 30,000 cells per well in a 24 well plate and cultured for 5 days in DMEM/F12, 5% FBS and cell proliferation was measured."}, "[7]": {"system": "fibroblastic cultures derived from RPE", "experiment": "Reversal of epithelial to mesenchymal transition in fibroblastic cultures derived from RPE", "format": "cell-based, human", "conditions": "10 mM nicotinamide, media changed 3 times a week; micrograph at 8 weeks", "protocol": "Epithelial to mesenchymal transition (EMT) was determined in fibroblastic cultures as follows: cells were plated 30,000 cells per 1 cm^2 tissue culture plate in DMEM/F12 with 5% FBS with the addition of 10 ng/ml TGFβ and 10 ng/ml TNFα to induce epithelial to mesenchymal transition (EMT). The extent of EMT was determined by the morphologic changes and immunohistochemical stains described above. Epithelial cells were plated at 30,000 cells/cm^2 and cultured until confluent (left image), after which 10 mM nicotinamide was added to the media, which was changed 3 times a week for 8 weeks (FIG. 10). The swirling fibroblastic morphology seen prior to addition of nicotinamide seen at the ‘3 week’ stage indicate the RPE cells have undergone EMT, losing their cobblestone morphology."}, "[8]": {"system": "Adult human RPE", "experiment": "Oxidative stress analysis: TBHP-induced TIMP-3 expression", "conditions": "500 μM TBHP 2 hours daily; presence vs absence of nicotinamide; quantitative PCR"}}}
{"molecule": "NC(=O)c1cccnc1", "note": "[nicotinamide, Nicotinamide]", "values": [{"measurement": "RPE cell morphology", "setting": "[1]", "result": "maintained their characteristic cobblestone morphology"}, {"measurement": "transepithelial resistance", "setting": "[2]", "result": "increased over time"}, {"measurement": "pattern of ZO-1 expression", "setting": "[3]; 10 mM nicotinamide vs control RPE cells", "result": "localized expression of tight junction protein ZO-1 peripherally around the cell borders"}, {"measurement": "ZO1 staining (junctional marker)", "setting": "[3]; 10 mM nicotinamide vs no nicotinamide", "result": "high levels of ZO1 staining"}, {"measurement": "MITF mRNA expression (RPE marker)", "setting": "[4]", "result": "increased"}, {"measurement": "RPE65 mRNA expression (RPE marker)", "setting": "[4]", "result": "increased"}, {"measurement": "SLUG mRNA expression (mesenchymal marker)", "setting": "[4]", "result": "decreased"}, {"measurement": "SNAIL mRNA expression (mesenchymal marker)", "setting": "[4]", "result": "decreased"}, {"measurement": "TWIST mRNA expression (mesenchymal marker)", "setting": "[4]", "result": "decreased"}, {"measurement": "SNAIL staining", "setting": "[5]", "result": "decreased"}, {"measurement": "immunostaining for the cell proliferation marker Ki67", "setting": "[6]", "result": "decreased immunostaining"}, {"measurement": "total cell number", "setting": "[6]", "result": "decrease in the total cell number"}, {"measurement": "cell morphology after EMT (reversal of EMT)", "setting": "[7]", "result": "revert to their physiologic cobblestone morphology"}, {"measurement": "TBHP-induced TIMP3 expression relative to day 0", "setting": "[8]", "result": "suppressed"}]}
